Assay results from patent publication US8163870B2, “Channel forming peptides” (Kansas State University Research Foundation, priority 2000, dated 2012).
Values joined by “and” are separate entries in the source; they are usually repeats but may differ in a detail not shown here. Equal values may be shown once. Read-outs that look alike come from different tables or passages of the source. Non-standard residues stand in square brackets, D forms with d. No end group written: not given here. DAP = diaminopimelic acid

Tested on: MDCK cells
Format: cell-based, canine
Details: for EC50: MDCK monolayers, modified Hill equation fit, read-out: half maximal effect on Isc (EC50 / K1/2)
Source text: Cell culture: MDCK cells were a generous gift of Dr. Lawrence Sullivan (Kansas University Medical Center, Kansas City, Kans.). T84 cells were obtained from Dr. Daniel Devor (University of Pittsburgh, Pittsburgh, Pa.). MDCK and T84 cells were maintained with similar culture procedures. The culture medium was a 1:1 mixture of DMEM and Ham's F-12 (Gibco BRL, Grand Island, N.Y.) supplemented with 5% heat inactivated fetal bovine serum (BioWhittaker, Walkersville, Md.), and 1% penicillin and streptomycin (Gibco BRL). Cells were grown in plastic culture flasks in a humidified environment with 5% CO2 at 37° C. and passaged every 5-7 days. For Ussing chamber experiments, cells were plated on 1.13 cm^2 permeable supports (Snapwell™, Costar®, Cambridge, Mass.) at a density of approximately 1×10^6 cells/well and incubated in DMEM/F-12 supplemented with FBS and antibiotics (changed every other day) for 2-3 weeks prior to being mounted in modified Ussing flux chambers.
To form monolayers, the cells were plated onto the upper surface of a permeable membrane that forms the bottom of a plastic well. Two types were used. One was the Transwell™ insert (Costar®, Cambridge, Mass.) supported in a six-well tissue culture plate and the other type was the Snapwell™ (Costar®, Cambridge, Mass.). During incubation, the medium was replaced at 48-72 hour intervals. Confluent monolayers formed within 72 hours. Experiments were performed on the monolayers 6-9 days after the initial plating. Net fluid secretion responses were optimal after six days.
Solutions: Ringer solution was made fresh daily. The final concentration (in mM) was 120 NaCl, 25 NaHCO3 3.3 KH2HPO4, 0.8 K2HPO4, 1.2 MgCl2, 1.2 CaCl2, (290±2 mOsmol). All components of the Ringer solution were from Sigma (St. Louis, Mo.).
(§1) Epithelial electrical measurements: Transepithelial ion transport was evaluated in a modified Ussing chamber (Model DCV9, Navicyte, San Diego, Calif.). The Ussing chamber's fluid resistance compensation was completed in Ringer solution (see below). For electrical measurements cell monolayers were bathed in Ringer solution maintained at 37° C. and continuously bubbled with 5% CO2:95% O2. The transepithelial membrane potential (Vte) was clamped to zero and the transepithelial short circuit current (Isc), an indicator of net ion transport, was measured continuously with a voltage clamp apparatus (Model 558C, University of Iowa, Department of Bioengineering, Iowa City, Iowa). Data were digitally acquired at 1 Hz with a Macintosh computer (Apple Computer, Cuppertino, Calif.) using Aqknowledge software (ver. 3.2.6, BIOPAC Systems, Santa Barbara, Calif.) with an MP100A-CE interface.
as §1, with “Transepithelial” for “Epithelial electrical measurements: Transepithelial”, “(composition (in mM) was 120 NaCl, 25 NaHCO3 3.3 KH2HPO4, 0.8 K2HPO4, 1.2 MgCl2, 1.2 CaCl2).” for “(see below).”
MDCK cell monolayers (in the presence of 1-EBIO to maximize basolateral membrane K^+ conductance) were exposed on the apical aspect to escelating peptide concentrations. Maximal change in Isc (relative to the Isc prior to peptide exposure) was recorded following each increment in apical peptide concentration. […]

Compound | Activity profile in MDCK cells (peptide at 500 μM) [at 500 μM μA/cm2] | other results
KKKKPARVGLGITTVLTMTTQ (KKKKPARVGLGITTVLTMTTQ; Modified Homo sapiens) [SEQ ID No. 35] | 13.1 | –
KKKKVTTIGLGVRAPLPARVGLGITTV (KKKKVTTIGLGVRAPLPARVGLGITTV; Modified Homo sapiens) [SEQ ID No. 22] | <1.0 | –
KKKKPARVGL GITTVLTRTT (DAP)S (KKKKPARVGLGITTVLTRTT[DAP]S) [SEQ ID No. 32] | 24.0 | –
KKKKPARVGLGITTVLTMTTRS (KKKKPARVGLGITTVLTMTTRS; Modified Homo sapiens) [SEQ ID No. 13] | 24.0 | –
KKKKPARVGL GITTVLTMTT (KKKKPARVGLGITTVLTMTT; Modified Homo sapiens) [SEQ ID No. 36] | 8.8 | –
KKKKPARVGL GITTVLT (KKKKPARVGLGITTVLT; Modified Homo sapiens) [SEQ ID No. 39] | 1.8 | –
KKKKPARVGLGITTVLAARVGLGITTV (KKKKPARVGLGITTVLAARVGLGITTV; Modified Homo sapiens) [SEQ ID No. 21] | – | Activity profile in MDCK cells (peptide at 250 μM): 8.0 at 250 μM μA/cm2
KKKKAARVGLGITTVVTTIGLGVRAA (KKKKAARVGLGITTVVTTIGLGVRAA; Modified Homo sapiens) [SEQ ID No. 28] | – | Activity profile in MDCK cells (peptide at 100 μM): 17.3 at 100 μM μA/cm2
GLGITTVLTMTTQSSGSRAKKKK (GLGITTVLTMTTQSSGSRAKKKK; Modified Homo sapiens) [SEQ ID No. 42] | 3.3 | –
PARVGLGITT V (PARVGLGITTV; Modified Homo sapiens) [SEQ ID No. 48] | <1.0 | –
RVGLGITTVLTMTTQSSGSRAKKKK (RVGLGITTVLTMTTQSSGSRAKKKK; Modified Homo sapiens) [SEQ ID No. 41] | 6.3 | –
ARSGSSQTTMTLVTTIGLGVRAPKKKK (ARSGSSQTTMTLVTTIGLGVRAPKKKK; Modified Homo sapiens) [SEQ ID No. 17] | 3.6 | –
KKKKPARVGL GITTVLTMT (KKKKPARVGLGITTVLTMT; Modified Homo sapiens) [SEQ ID No. 37] | 8.7 | –
VTTIGLGVRA A (VTTIGLGVRAA; Modified Homo sapiens) [SEQ ID No. 53] | <1.0 | –
KKKKPARVGLGITTVLTMTTQS (KKKKPARVGLGITTVLTMTTQS; Modified Homo sapiens) [SEQ ID No. 34] | 20.3 | –
KKKKTMTTQSSGSRALTMTTQSSGSRA (KKKKTMTTQSSGSRALTMTTQSSGSRA; Modified Homo sapiens) [SEQ ID No. 6] | <1.0 | –
KKKKPARVGLGITTVLTMTTQR (KKKKPARVGLGITTVLTMTTQR; Modified Homo sapiens) [SEQ ID No. 14] | 20.0 | –
VTTIGLGVRA P (VTTIGLGVRAP; Modified Homo sapiens) [SEQ ID No. 50] | <1.0 | –
KKKKPARVGL GITTVL (KKKKPARVGLGITTVL; Modified Homo sapiens) [SEQ ID No. 40] | 1.5 | –
TMTTQSSGSR A (TMTTQSSGSRA; Modified Homo sapiens) [SEQ ID No. 49] | <1.0 | –

Compound | Activity profile in MDCK cells (peptide at 500 μM) [at 500 μM μA/cm2] | other results
KKKKTMTTQSSGSRALVTTIGLGVRAA (KKKKTMTTQSSGSRALVTTIGLGVRAA; Modified Homo sapiens) [SEQ ID No. 7] | <1.0 | –
CCn1c(=O)[nH]c2ccccc21 [1-EBIO, reference compound] | – | effect on ISC or gTE (MDCK pretreatment, basal conditions): no effect
KKKKVTTIGLGVRAPLARSGSSQTTMT [SEQ ID No. 8] | <1.0 | –
GITTVLTMTTQSSGSRAKKKK (GITTVLTMTTQSSGSRAKKKK; Modified Homo sapiens) [SEQ ID No. 44] | <1.0 | –
KKKKTMTTQSSGSRALARSGSSQTTMT (KKKKTMTTQSSGSRALARSGSSQTTMT; Modified Homo sapiens) [SEQ ID No. 24] | <1.0 | –
KKKKARSGSSQTTMTLTMTTQSSGSRA (KKKKARSGSSQTTMTLTMTTQSSGSRA; Modified Homo sapiens) [SEQ ID No. 23] | 4.2 | –
KKKKPARVGLGITTVLTRTTQS (KKKKPARVGLGITTVLTRTTQS; Modified Homo sapiens) [SEQ ID No. 15] | <1.0 | –
KKKKPARVGLGITTVLTMTTQSSGS (KKKKPARVGLGITTVLTMTTQSSGS; Modified Homo sapiens) [SEQ ID No. 33] | 18.4 | –
ARSGSSQTTM T (ARSGSSQTTMT; Modified Homo sapiens) [SEQ ID No. 51] | <1.0 | –
KKKKARSGSSQTTMTLVTTIGLGVRAA (KKKKARSGSSQTTMTLVTTIGLGVRAA; Modified Homo sapiens) [SEQ ID No. 4] | – | Activity profile in MDCK cells (peptide at 300 μM): 18.7 at 300 μM μA/cm2
KKKKPARVGL GITTVLTM (KKKKPARVGLGITTVLTM; Modified Homo sapiens) [SEQ ID No. 38] | 6.8 | –
KKKKPARVGLGITTVWTMTTQSSGSRA (KKKKPARVGLGITTVWTMTTQSSGSRA; Modified Homo sapiens) [SEQ ID No. 10] | 20.0 | –
AARVGLGITT V (AARVGLGITTV; Modified Homo sapiens) [SEQ ID No. 52] | <1.0 | –
KKKKPARVGLGITTVLPARVGLGITTV (KKKKPARVGLGITTVLPARVGLGITTV; Modified Homo sapiens) [SEQ ID No. 20] | <1.0 | –
KKKKAARVGLGITTVLVTTIGLGVRAA [SEQ ID No. 27, KKKKAARVGL GITTVLVTTI GLGVRAA] | – | EC50 (listed as SEQ ID NO. 27): 50 µM and ~40 µM; EC50: 40 µM
KKKKARSGSSQTTMTLARSGSSQTTMT (KKKKARSGSSQTTMTLARSGSSQTTMT; Modified Homo sapiens) [SEQ ID No. 25] | <1.0 | –
LGITTVLTMTTQSSGSRAKKKK (LGITTVLTMTTQSSGSRAKKKK; Modified Homo sapiens) [SEQ ID No. 43] | <1.0 | –
LTMTTQSSGS RAKKKK (LTMTTQSSGSRAKKKK; Modified Homo sapiens) [SEQ ID No. 46] | <1.0 | –
ITTVLTMTTQ SSGSRAKKKK (ITTVLTMTTQSSGSRAKKKK; Modified Homo sapiens) [SEQ ID No. 45] | <1.0 | –
KKKKPARVGLGITTVLTMTTQSSGSRAKKKK (KKKKPARVGLGITTVLTMTTQSSGSRAKKKK; Modified Homo sapiens) [SEQ ID No. 47] | 5.0 | –
